Test results reported in publication PMC10026764, “Overcoming the imatinib-resistant BCR-ABL mutants with new ureidobenzothiazole chemotypes endowed with potent and broad-spectrum anticancer activity” (Journal of Enzyme Inhibition and Medicinal Chemistry, 2023).
Values joined by “and” are separate entries in the source; they are usually repeats but may differ in a detail not shown here. Equal values may be shown once. Read-outs that look alike come from different tables or passages of the source.

Experiments:
[1] = tested on: NCI-H322M; assay: NCI-60 five-dose SRB assay; format: cell-based, human; settings: for CC50 / GI50: Homo sapiens; for CC50 / TGI: NSCL cancer; for CC50: read-out: LC50 (the source's name); for GI50: non-small cell lung cancer
[2] = tested on: LOX IMVI; assay: NCI-60 five-dose SRB assay; format: cell-based; settings: Homo sapiens, melanoma
[3] = tested on: RXF 393; assay: NCI-60 five-dose SRB assay; format: cell-based; settings: Homo sapiens; RXF 393, renal cancer
[4] = tested on: SR; assay: NCI-60 five-dose SRB assay; format: cell-based, human; settings: leukaemia
[5] = tested on: HCT-116; assay: NCI-60 five-dose SRB assay; format: cell-based; settings: Homo sapiens; HCT-116, colon cancer
[6] = tested on: NCI 60-cell line panel; assay: cells; format: cell-based
[7] = tested on: UO-31; assay: NCI-60 five-dose SRB assay; format: cell-based, human; settings: UO-31, renal cancer; for GI50 / CC50: Homo sapiens; for CC50: read-out: LC50 (the source's name)
[8] = tested on: SNB-19; assay: NCI-60 five-dose SRB assay; format: cell-based; settings: Homo sapiens; SNB-19, CNS cancer
[9] = tested on: SF-539; assay: NCI-60 five-dose SRB assay; format: cell-based; settings: Homo sapiens; SF-539, CNS cancer
[10] = target: BCR-ABL^WT (Homo sapiens, UniProt P00519); assay: In vitro kinase screening (RBC), BCR-ABL^WT; format: biochemical; settings: 10-dose IC50 mode, 3-fold serial dilution, 10 μM ATP
BCR-ABL^WT, sequence (P00519 27-1130): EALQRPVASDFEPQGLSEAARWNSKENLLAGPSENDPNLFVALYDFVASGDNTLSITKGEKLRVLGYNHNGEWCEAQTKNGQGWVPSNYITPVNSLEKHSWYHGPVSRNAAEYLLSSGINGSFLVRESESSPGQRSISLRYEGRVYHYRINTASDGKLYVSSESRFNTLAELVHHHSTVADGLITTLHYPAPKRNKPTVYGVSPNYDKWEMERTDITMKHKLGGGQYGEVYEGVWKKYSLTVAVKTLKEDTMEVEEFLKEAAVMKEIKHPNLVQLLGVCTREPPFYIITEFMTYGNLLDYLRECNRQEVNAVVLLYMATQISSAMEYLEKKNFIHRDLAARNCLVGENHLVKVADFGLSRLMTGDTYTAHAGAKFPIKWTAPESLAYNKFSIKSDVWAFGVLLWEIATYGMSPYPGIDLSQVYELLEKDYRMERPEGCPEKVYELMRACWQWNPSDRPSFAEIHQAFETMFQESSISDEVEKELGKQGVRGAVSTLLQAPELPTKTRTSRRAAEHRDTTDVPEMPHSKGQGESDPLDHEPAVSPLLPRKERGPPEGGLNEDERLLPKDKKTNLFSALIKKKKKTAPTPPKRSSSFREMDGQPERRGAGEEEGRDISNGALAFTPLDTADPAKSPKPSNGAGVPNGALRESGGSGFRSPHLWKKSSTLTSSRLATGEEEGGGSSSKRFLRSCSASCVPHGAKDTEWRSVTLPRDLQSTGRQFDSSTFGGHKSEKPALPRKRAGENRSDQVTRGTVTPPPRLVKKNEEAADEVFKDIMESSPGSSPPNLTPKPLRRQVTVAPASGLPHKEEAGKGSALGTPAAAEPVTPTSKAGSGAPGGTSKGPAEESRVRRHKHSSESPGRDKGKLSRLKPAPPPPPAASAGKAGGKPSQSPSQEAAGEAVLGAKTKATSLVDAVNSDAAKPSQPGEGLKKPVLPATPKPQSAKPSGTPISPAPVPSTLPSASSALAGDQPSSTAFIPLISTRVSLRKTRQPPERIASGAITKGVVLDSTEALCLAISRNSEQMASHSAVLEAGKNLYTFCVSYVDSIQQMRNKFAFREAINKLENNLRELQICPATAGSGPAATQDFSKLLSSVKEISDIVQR

[11] = tested on: ACHN; assay: NCI-60 five-dose SRB assay; format: cell-based, human; settings: renal cancer; for GI50 / CC50: Homo sapiens; for CC50: read-out: LC50 (the source's name)
[12] = tested on: SW-620; assay: NCI-60 five-dose SRB assay; format: cell-based; settings: Homo sapiens; SW-620, colon cancer
[13] = tested on: SK-MEL-2; assay: NCI-60 five-dose SRB assay; format: cell-based; settings: Homo sapiens; SK-MEL-2, melanoma
[14] = tested on: OVCAR-3; assay: NCI-60 five-dose SRB assay; format: cell-based, human; settings: OVCAR-3, ovarian cancer; for GI50 / LC50 (concentration killing 50% of cells): Homo sapiens
[15] = tested on: SK-MEL-28; assay: NCI-60 five-dose SRB assay; format: cell-based; settings: Homo sapiens; SK-MEL-28, melanoma
[16] = tested on: OVCAR-8; assay: NCI-60 five-dose SRB assay; format: cell-based; settings: Homo sapiens; OVCAR-8, ovarian cancer
[17] = tested on: HT29; assay: NCI-60 five-dose SRB assay; format: cell-based, human; settings: HT29, colon cancer; for GI50 / CC50: Homo sapiens, HT-29; for CC50: read-out: LC50 (the source's name)
[18] = tested on: K-562; assay: NCI-60 five-dose SRB assay; format: cell-based, human; settings: K-562, leukaemia
[19] = tested on: 786-0; assay: NCI-60 five-dose SRB assay; format: cell-based; settings: Homo sapiens; 786-0, renal cancer
[20] = tested on: M14; assay: NCI-60 five-dose SRB assay; format: cell-based, human; settings: M14, melanoma; for GI50 / LC50 (concentration killing 50% of cells): Homo sapiens
[21] = tested on: MDA-MB-231; assay: NCI-60 five-dose SRB assay; format: cell-based; settings: Homo sapiens; MDA-MB-231, breast cancer
[22] = tested on: TK-10; assay: NCI-60 five-dose SRB assay; format: cell-based; settings: Homo sapiens; TK-10, renal cancer
[23] = tested on: KM12; assay: NCI-60 five-dose SRB assay; format: cell-based; settings: Homo sapiens; KM12, colon cancer
[24] = tested on: BT-549; assay: NCI-60 five-dose SRB assay; format: cell-based; settings: Homo sapiens; BT-549, breast cancer
[25] = tested on: IGROV1; assay: NCI-60 five-dose SRB assay; format: cell-based; settings: Homo sapiens, IGROV-1; IGROV1, ovarian cancer
[26] = tested on: SN12C; assay: NCI-60 five-dose SRB assay; format: cell-based; settings: Homo sapiens, renal cancer
[27] = tested on: UACC-62; assay: NCI-60 five-dose SRB assay; format: cell-based; settings: Homo sapiens; UACC-62, melanoma
[28] = tested on: A549/ATCC; assay: NCI-60 five-dose SRB assay; format: cell-based; settings: Homo sapiens, non-small cell lung cancer
[29] = tested on: HCC-2998; assay: NCI-60 five-dose SRB assay; format: cell-based; settings: Homo sapiens; HCC-2998, colon cancer
[30] = tested on: CAKI-1; assay: NCI-60 five-dose SRB assay; format: cell-based; settings: Homo sapiens; CAKI-1, renal cancer
[31] = tested on: SR; parameters: method as in earlier work; settings: imatinib mesylate NSC 743414, NCI data; cited from earlier work
[32] = tested on: A549/ATCC; parameters: method as in earlier work; settings: imatinib mesylate NSC 743414, NCI data; cited from earlier work
[33] = tested on: SF-295; parameters: method as in earlier work; settings: imatinib mesylate NSC 743414, NCI data; cited from earlier work
[34] = tested on: NCI 60-cell line panel; parameters: method as in earlier work; settings: COLO205, HCC-2998, HCT-116 and HCT-15 colon cancer cells; cited from earlier work
[35] = tested on: OVCAR-4; parameters: method as in earlier work; settings: imatinib mesylate NSC 743414, NCI data; cited from earlier work
[36] = tested on: CCRF-CEM; parameters: method as in earlier work; settings: imatinib mesylate NSC 743414, NCI data; cited from earlier work
[37] = tested on: T-47D; parameters: method as in earlier work; settings: imatinib mesylate NSC 743414, NCI data; cited from earlier work
[38] = tested on: BT-549; parameters: method as in earlier work; settings: imatinib mesylate NSC 743414, NCI data; cited from earlier work
[39] = tested on: TK-10; parameters: method as in earlier work; settings: imatinib mesylate NSC 743414, NCI data; cited from earlier work
[40] = tested on: HOP-92; parameters: method as in earlier work; settings: imatinib mesylate NSC 743414, NCI data; cited from earlier work
[41] = Homo sapiens, 60 cell, all tested melanoma cell lines, read-out: GI50
[42] = Homo sapiens, COLO205, HCC-2998, HCT-116 and HCT-15 colon cancer cells, read-out: GI50

In the case of CCN1CCN(c2ccc(NC(=O)Nc3nc4ccc(-c5ccccc5OC)cc4s3)cc2)CC1 [Compound 2b], the CC50 [1] is reported as 5990 nM, the GI50 [1] is reported as 1530 nM and the TGI [1] is reported as 3030 nM. For the same molecule, the GI50 [2] was 1700 nM, the GI50 [3] was 1700 nM and the GI50 ([4]; Homo sapiens) was roughly 1700 nM. The GI50 [4] was 1650 nM, the GI50 [5] was 1580 nM and the GI50 ([6]; Homo sapiens, 60 cell, all ovarian cancer cell lines, read-out: GI50) was less than 2000 nM. The GI50 [6, 41] was 1540 to 2510 nM, the LC50 ([6]; Homo sapiens, 60 cell, several cancer cells) was less than 10000 nM and the GI50 [6, 42] was 1070 to 2650 nM. For the same molecule, the GI50 ([6]; all examined cell lines) was “one-digit micromolar”, the TGI ([6]; several cancer cells) was less than 5000 nM and the GI50 [7] was 1520 nM. The CC50 [7] was 5630 nM, the TGI [7] was 2920 nM and the GI50 [8] was 2030 nM. For the same molecule, the GI50 [9] was 1600 nM, the IC50 [10] was 0.7 nM and 0.701 nM and the GI50 [11] was 1740 nM. It also gave a CC50 [11] of 5580 nM, a TGI [11] of 3110 nM and a GI50 [12] of 1940 nM. For the same molecule, the GI50 [13] was 1940 nM, the GI50 [14] was 1640 nM and the LC50 (concentration killing 50% of cells) [14] was 5900 nM. For the same molecule, the TGI [14] was 3110 nM, the GI50 [15] was 1760 nM and the GI50 [16] was 1990 nM. The TGI [17] was 2700 nM, the GI50 [17] was 1310 nM and the CC50 [17] was 5570 nM. The GI50 ([18]; Homo sapiens, K562) was 293 nM, the TGI [18] was 1340 nM and the GI50 [19] was 1800 nM. The GI50 [20] was 1620 nM, the LC50 (concentration killing 50% of cells) [20] was 5660 nM and the TGI [20] was 3030 nM. For the same molecule, the GI50 [21] was 1720 nM, the GI50 [22] was 2120 nM and the GI50 [23] was 1750 nM. It also gave a GI50 [24] of 1880 nM, a GI50 [25] of 1870 nM and a GI50 [26] of 1770 nM. For the same molecule, the GI50 [27] was 1870 nM, the GI50 [28] was 1980 nM and the GI50 [29] was 1830 nM.
For COc1ccccc1-c1ccc2nc(NC(=O)Nc3cc(C(F)(F)F)cc(C(F)(F)F)c3)sc2c1 [Compound 2e], the CC50 [1] was 37000 nM, the GI50 [1] was 2780 nM and the TGI [1] was 9060 nM. The GI50 [2] was 1680 nM, the GI50 [3] was 2190 nM and the GI50 ([4]; Homo sapiens) was roughly 1700 nM. The GI50 [4] was 1760 nM, the GI50 [5] was 1070 nM and the GI50 [6, 41] was 1540 to 2510 nM. For the same molecule, the GI50 [6, 42] was 1070 to 2650 nM, the GI50 ([6]; all examined cell lines) was “one-digit micromolar” and the GI50 [7] was 1790 nM. The CC50 [7] was 9290 nM, the TGI [7] was 4070 nM and the GI50 [8] was 2440 nM. For the same molecule, the GI50 [9] was 1990 nM, the IC50 [10] was 4090 nM and the GI50 [11] was 2140 nM. For the same molecule, the CC50 [11] was 28200 nM, the TGI [11] was 7710 nM and the GI50 [12] was 3040 nM. It also gave a GI50 [13] of 2090 nM, a GI50 [14] of 1580 nM and an LC50 (concentration killing 50% of cells) [14] of 16700 nM. It also gave a TGI [14] of 4580 nM, a GI50 [15] of 2510 nM and a GI50 [16] of 3040 nM. It also gave a TGI [17] of 9210 nM, a GI50 [17] of 2150 nM and a CC50 [17] of 33000 nM. The GI50 ([18]; Homo sapiens, K562) was 1540 nM, the CC50 ([18]; Homo sapiens, K562, read-out: LC50 (the source's name)) was 43900 nM and the TGI [18] was 8950 nM. The GI50 [19] was 1440 nM, the GI50 [20] was 1540 nM and the LC50 (concentration killing 50% of cells) [20] was 6730 nM. The TGI [20] was 3220 nM, the GI50 [21] was 1950 nM and the GI50 [22] was 4030 nM. For the same molecule, the GI50 [30] was 2330 nM, the GI50 [23] was 2070 nM and the GI50 [24] was 1620 nM. For the same molecule, the GI50 [25] was 2830 nM, the GI50 [26] was 1700 nM and the GI50 [27] was 1560 nM. For the same molecule, the GI50 [28] was 3190 nM and the GI50 [29] was 2650 nM.
For Cc1ccc(NC(=O)c2ccc(CN3CCN(C)CC3)cc2)cc1Nc1nccc(-c2cccnc2)n1 [Imatinib], the GI50 [31] is given as 7140 nM, the GI50 [32] is given as 24500 nM and the GI50 [33] is given as 19800 nM. For the same molecule, the GI50 [34] was 12600 to 21200 nM, the GI50 [35] was 20000 nM and the GI50 [36] was 17000 nM. For the same molecule, the GI50 [37] was 19900 nM, the GI50 [38] was 16100 nM and the GI50 [39] was 26800 nM. For the same molecule, the GI50 [40] was 13300 nM.
